Measured values taken from patent US6387935B1, “Polycyclic dihydrothiazoles having substituted alkyl radicals in the two-position, process for their preparation, and their use as pharmaceuticals” (Aventis Pharma Deutschland GmbH, priority 1999, dated 2002).
Where “and” joins values, the source holds several entries; their conditions need not be identical. Identical values can stand only once.

Tests used:
NMRI mice = test: Anorectic action: cumulated evaporated milk consumption after oral administration; format: in vivo; settings: for cumulated milk consumption of the treated animals (male): oral dose 50 mg/kg via stomach tube, male NMRI mice after 24 hours feed withdrawal, milk offered 30 minutes after dosing, consumption determined half-hourly for 7 hours; for Reduction of the cumulated milk consumption in % of the control: oral dose 50 mg/kg, male NMRI mice, compared with untreated control animals
Experimental: The anorectic action was tested on male or female NMRI mice. After withdrawal of feed for 24 hours, the test preparation was administered via a stomach tube. Kept individually and with free access to drinking water, the animals were offered evaporated milk 30 minutes after giving the preparation. The consumption of evaporated milk was determined half-hourly for 7 hours and the general condition of the animals was observed. The measured milk consumption was compared with that of the untreated control animals.

melting point | Compound | cumulated milk consumption of the treated animals (male) (NMRI mice; 50 mg/kg) | Reduction of the cumulated milk consumption in % of the control (NMRI mice; 50 mg/kg) [%] | cumulated milk consumption of the treated animals (male) (NMRI mice) | Reduction of the cumulated milk consumption in % of the control (NMRI mice) [%] | cumulated milk consumption of the treated animals (male) (NMRI mice; Hydrobromide, 50 mg/kg) | Reduction of the cumulated milk consumption in % of the control (NMRI mice; Hydrobromide, 50 mg/kg) [%]
121 °C | OC12N=C(COc3ccccc3)SC1Cc1cc(Cl)ccc12 (stereo not shown) [Example 1, 6-chloro-2-phenoxymethyl-8,8a-dihydroindeno[1,2-d]thiazol-3a-ol] |  |  | 5/0.42 ml | 86 |  | 
170 °C | Br.OC12N=C(COc3ccc(Cl)cc3Cl)SC1Cc1cc(Cl)ccc12 (stereo not shown) [Example 6, 6-Chloro-2-(2,4-dichlorophenoxymethyl)-8,8a-dihydroindeno[1,2-d]thiazol-3a-ol Hydrobromide] |  |  |  |  | 5/0.22 ml | 95

Continued, molecule first:

Compound | melting point | cumulated milk consumption of the treated animals (male) (NMRI mice; 50 mg/kg) | Reduction of the cumulated milk consumption in % of the control (NMRI mice; 50 mg/kg) [%] | cumulated milk consumption of the treated animals (male) (NMRI mice) | Reduction of the cumulated milk consumption in % of the control (NMRI mice) [%] | cumulated milk consumption of the treated animals (male) (NMRI mice; Hydrobromide, 50 mg/kg) | Reduction of the cumulated milk consumption in % of the control (NMRI mice; Hydrobromide, 50 mg/kg) [%]
Br.OC12N=C(COc3ccc(Cl)cc3Cl)SC1Cc1cc(Cl)ccc12 (stereo not shown) [Example 2] |  | 5/0.34 ml | 88 |  |  |  | 
CC(C)(C)c1ccc(OCC2=NC3(O)c4ccc(Cl)cc4CC3S2)cc1 (single isomer, unassigned) [Example 9, 2-(4-tert-butylphenoxymethyl)-6-chloro-8,8a-dihydroindeno [1,2-d]thiazol-3a-ol] | 123 °C and 122 to 124 °C | 5/0.26 ml | 93 |  |  |  | 
CC(C)(C)c1ccc(OCC2=NC3(O)c4ccc(Cl)cc4CC3S2)cc1 (single isomer, unassigned) [Example 3] |  | 5/0.78 ml | 73 |  |  |  | 
OC12N=C(CSCc3ccccc3)SC1Cc1cc(Cl)ccc12 (stereo not shown) [Example 12, 2-Benzylsulfanylmethyl-6-chloro-8,8a-dihydroindeno [1,2-d]thiazol-3a-ol] | 102 to 104 °C and 102 °C |  |  | 5/1.36 ml | 71 |  | 
